The results in this text go back to US10214542B2, “Modified macrocyclic compounds” (BAYER PHARMA AKTIENGESELLSCHAFT, priority 2015, dated 2019).

Structures are written as SMILES. Several values for one entry are separate records, joined by “and”; a condition that tells them apart may be missing. Equal entries are not always repeated. Where two headings read alike, the source gives them in different places. Marks after values point to notes of the source that are not given here.

Test [1] addresses T1, human PTEFb (CDK9/Cyclin T1) (Homo sapiens, UniProt P50750).
T1 construct: purchased ProQinase, Freiburg, Germany
The test can be described thus: Surface Plasmon Resonance PTEFb (Method 8). It counts as binding. Particulars: 25° C., experimental parameters A-G per value; for Target resident time: 1/koff; for koff: read-out: Dissociation rate constant koff. The text has this: 8. Surface Plasmon Resonance PTEFb
The ability of the compounds according to the invention to bind human PTEFb may be determined using surface plasmon resonance (SPR). KD values and koff values may be measured using a Biacore® T200 instrument (GE Healthcare, Uppsala, Sweden).
For SPR measurements, recombinant human PTEFb (CDK9/Cyclin T1 recombinant human active protein kinase purchased from ProQinase, Freiburg, Germany) is immobilized using standard amine coupling (Johnsson B et al, Anal Biochem. 1991 Nov. 1; 198(2):268-77). Briefly, carboxymethylated dextran biosensor chips (CM7, GE Healthcare) are activated with N-ethyl-N′-(3-dimethylaminopropyl)-carbodiimide hydrochloride (EDC) and N-hydroxysuccinimide (NHS) according to the supplier's instructions. Human PTEFb is diluted in 1×HBS-EP+ (GE Healthcare) and injected on the activated chip surface. Subsequently, a 1:1 solution of 1 M ethanolamine-HCl (GE Healthcare) and 1×HBS-EP is injected to block unreacted groups, resulting in approximately 4000 response units (RU) of immobilized protein. A reference surface is generated by treatment with NHS-EDC and ethanolamine-HCl. Compounds are dissolved in 100% dimethylsulfoxide (DMSO, Sigma-Aldrich, Germany) to a concentration of 10 mM and subsequently diluted in running buffer (1×HBS-EP+ pH 7.4 [generated from HBS-EP+ Buffer 10× (GE Healthcare): 0.1 M HEPES, 1.5 M NaCl, 30 mM EDTA and 0.5% v/v Surfactant P20], 1% v/v DMSO). For kinetic measurements, serial dilutions of compound (0.82 nM up to 2 μM) are injected over immobilized protein. Binding kinetics is measured at 25° C. with a flow rate of 50 μl/min in running buffer. Compound concentrations are injected for 60 s followed by a dissociation time of 1800 s. The resulting sensorgrams are double-referenced against the reference surface as well as against blank injections.
The double-referenced sensorgrams are fit to a simple reversible Langmuir 1:1 reaction mechanism as implemented in the Biacore® T200 evaluation software 2.0 (GE Healthcare). In cases were full compound dissociation has not occurred at the end of the dissociation phase, the Rmax parameter (response at saturation) is fit as local variable. In all other cases, Rmax is fit as global variable.
Slight variations of experimental parameters are indicated by letters (A-G): […]

Test [2] has as its target T1, human PTEFb (CDK9/Cyclin T1). The test can be described thus: Surface Plasmon Resonance PTEFb (Method 8). It counts as binding. The conditions noted are these: 37° C., experimental parameters E; for Target resident time: 1/koff; for koff: read-out: Dissociation rate constant koff.

T1 sequence (P50750 whole entry): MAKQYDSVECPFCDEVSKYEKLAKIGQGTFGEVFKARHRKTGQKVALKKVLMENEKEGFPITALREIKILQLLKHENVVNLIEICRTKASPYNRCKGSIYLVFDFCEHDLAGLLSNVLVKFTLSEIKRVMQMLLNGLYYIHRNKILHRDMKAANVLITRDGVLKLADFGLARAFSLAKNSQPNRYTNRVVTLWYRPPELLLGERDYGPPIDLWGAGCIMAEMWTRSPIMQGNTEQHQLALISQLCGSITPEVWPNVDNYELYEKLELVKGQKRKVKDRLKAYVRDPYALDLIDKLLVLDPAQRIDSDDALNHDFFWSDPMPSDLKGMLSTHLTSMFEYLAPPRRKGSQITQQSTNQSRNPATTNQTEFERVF
T1 sequence (O60563 whole entry partner): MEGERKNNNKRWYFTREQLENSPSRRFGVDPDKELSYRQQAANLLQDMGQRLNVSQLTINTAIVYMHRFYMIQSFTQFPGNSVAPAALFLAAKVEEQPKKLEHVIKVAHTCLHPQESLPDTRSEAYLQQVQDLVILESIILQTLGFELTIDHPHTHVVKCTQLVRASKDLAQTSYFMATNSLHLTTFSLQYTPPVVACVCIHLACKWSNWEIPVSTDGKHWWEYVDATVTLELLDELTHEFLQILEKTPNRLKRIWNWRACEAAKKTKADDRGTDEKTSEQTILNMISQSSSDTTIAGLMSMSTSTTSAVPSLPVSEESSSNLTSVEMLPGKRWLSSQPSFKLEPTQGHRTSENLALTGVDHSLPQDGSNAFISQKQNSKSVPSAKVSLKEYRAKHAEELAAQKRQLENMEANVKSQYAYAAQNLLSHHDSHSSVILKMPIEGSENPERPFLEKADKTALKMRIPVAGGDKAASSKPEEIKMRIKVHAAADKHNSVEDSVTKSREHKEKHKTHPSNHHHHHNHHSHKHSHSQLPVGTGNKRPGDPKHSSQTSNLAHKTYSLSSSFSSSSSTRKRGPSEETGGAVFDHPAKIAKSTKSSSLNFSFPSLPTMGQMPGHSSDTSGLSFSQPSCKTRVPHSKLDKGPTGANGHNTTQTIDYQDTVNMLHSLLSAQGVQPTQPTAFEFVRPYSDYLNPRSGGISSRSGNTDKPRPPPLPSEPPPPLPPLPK

`CS(=O)(Cc1cc2nc(c1)Nc1cc(c(F)cn1)-c1ccc(F)cc1OCCCCN2)=NC(=O)OCc1ccccc1` (racemic) [Example 2, (rac)-Benzyl[{[16,20-difluoro-3,4,5,6-tetrahydro-2H,12H-11,7-(azeno)-13,17-(metheno)-1,6,12,14-benzoxatriazacyclononadecin-9-yl]methyl}(methyl)oxido-λ^6-sulfanylidene]carbamate]: in test [1], the Target resident time is 44.9 min and 33.1 min; the “Dissociation rate constant koff” value was 0.000504 s⁻¹; the koff turned out to be 0.000371 s⁻¹.

With `C[S+]([O-])Cc1cc2nc(c1)OCCCCc1cc(F)ccc1-c1cc(ncc1F)N2` (racemic) [Example 5, (rac)-2,18-Difluoro-9-[(methylsulfinyl)methyl]-13,14,15,16-tetrahydro-6H-7,11-(azeno)-5,1-(metheno)-12,4,6-benzoxadiazacyclooctadecine], in test [1], the Target resident time turned out to be 17.2 min and the koff stood at 0.000968 s⁻¹.

For `CC(C)(C)OC(=O)N=S(C)(=O)Cc1cc2nc(c1)Nc1cc(c(F)cn1)-c1ccc(F)cc1OCCCN2` (racemic) [Example 7, (rac)-tert-butyl[{[15,19-difluoro-2,3,4,5-tetrahydro-11H-10,6-(azeno)-16,12-(metheno)-1,5,11,13-benzoxatriazacyclooctadecin-8-yl]methyl}(methyl)oxido-λ^6-sulfanylidene]carbamate], in test [1], the Target resident time is >666* min and the koff was less than 2.5e-05 s⁻¹.

For `CN1CCCCOc2cc(F)ccc2-c2cc(ncc2F)Nc2cc(CS(C)(=N)=O)cc1n2` (racemic) [Example 11, (rac)-16,20-difluoro-6-methyl-9-[(S-methylsulfonimidoyl)methyl]-3,4,5,6-tetrahydro-2H-7,11-(azeno)-17,13-(metheno)-1,6,12,14-benzoxatriazacyclononadecine], in test [1], the Target resident time is >666* min and the koff is less than 2.5e-05 s⁻¹.

`CC(C)(C)OC(=O)N=S(C)(=O)Cc1cc2cc(c1)OCCCCNc1cc(F)ccc1-c1nc(ncc1F)N2` (racemic) [Example 15, (rac)-tert-butyl[{[16,20-difluoro-2,3,4,5-tetrahydro-1H,12H-13,17-(azeno)-11,7-(metheno)-6,1,12,14-benzoxatriazacyclononadecin-9-yl]methyl}(methyl)oxido-λ^6-sulfanylidene]carbamate]: in test [1], the Target resident time is > 666 min and 372.9 min; the “Dissociation rate constant koff” value is 4.47e-05 s⁻¹; the koff was less than 2.5e-05 s⁻¹.

Consider `CS(=N)(=O)Cc1cc2cc(c1)OCCCCNc1cc(F)ccc1-c1nc(ncc1F)N2` (racemic) [Example 16, (rac)-16,20-difluoro-9-[(S-methylsulfonimidoyl)methyl]-2,3,4,5-tetrahydro-1H-17,13-(azeno)-7,11-(metheno)-6,1,12,14-benzoxatriazacyclononadecine], for which, in test [2], the Target resident time is on record as 46.3* min and the koff is 0.00036 s⁻¹.

`CN1CCCCNc2cc(F)ccc2-c2nc(ncc2F)Nc2cc(CS(C)(=N)=O)cc1c2.O=CO` (racemic) [Example 17, (rac)-16,20-difluoro-6-methyl-9-[(S-methylsulfonimidoyl)methyl]-1,2,3,4,5,6-hexahydro-12H-17,13-(azeno)-11,7-(metheno)-1,6,12,14-benzotetraazacyclononadecine; salt with formic acid]: in test [2], the Target resident time is 115.7* min and the koff turned out to be 0.000144 s⁻¹.

For `C[S+]([O-])Cc1cc2nc(c1)OCCCCCc1cc(F)ccc1-c1cc(ncc1F)N2` (racemic) [Example 19, (rac)-2,19-difluoro-9-[(methylsulfinyl)methyl]-14,15,16,17-tetrahydro-6H,13H-7,11-(azeno)-5,1-(metheno)-12,4,6-benzoxadiazacyclononadecine], in test [1], the Target resident time is 4.8* min and the koff came out at 0.00345 s⁻¹.

Regarding `CS(=N)(=O)Cc1cc2nc(c1)OCCCCCc1cc(F)ccc1-c1cc(ncc1F)N2` (racemic) [Example 20, (rac)-2,19-difluoro-9-[(S-methylsulfonimidoyl)methyl]-14,15,16,17-tetrahydro-6H,13H-7,11-(azeno)-5,1-(metheno)-12,4,6-benzoxadiazacyclononadecine], in test [1], the Target resident time was 14.7* min and the off-rate constant (koff) came out at 0.00113 s⁻¹.

With `CS(=N)(=O)Cc1cc2cc(c1)OCCCCSc1cc(F)ccc1-c1nc(ncc1F)N2` (racemic) [Example 22, (rac)-16,20-difluoro-9-[(S-methylsulfonimidoyl)methyl]-2,3,4,5-tetrahydro-12H-17,13-(azeno)-11,7-(metheno)-6,1,12,14-benzoxathiadiazacyclononadecine], in test [2], the Target resident time is recorded as 17.5* min and the koff was 0.000954 s⁻¹.

With `CN1CCCCOc2cc(F)ccc2-c2nc(ncc2F)Nc2cc(CS(C)(=N)=O)cc1c2` (racemic) [Example 23, (rac)-16,20-difluoro-6-methyl-9-[(S-methylsulfonimidoyl)methyl]-3,4,5,6-tetrahydro-2H,12H-13,17-(azeno)-11,7-(metheno)-1,6,12,14-benzoxatriazacyclononadecine], in test [1], the Target resident time was 87.3* min and the koff amounted to 0.000191 s⁻¹.

On to `CSCc1cc2nc(c1)OCCCCc1cc(F)ccc1-c1cc(ncc1F)N2` [Example 4, 2,18-Difluoro-9-[(methylsulfanyl)methyl]-13,14,15,16-tetrahydro-6H-7,11-(azeno)-5,1-(metheno)-12,4,6-benzoxadiazacyclooctadecine], for which, in test [1], the Target resident time stood at 14.6 min and the koff was found to be 0.00114 s⁻¹.
